Read-outs that look alike come from different tables or passages of the source.
How the values were obtained:
[1] = target: T1, mouse C1s (Mus musculus, UniProt Q8CG14); experiment: Mouse C1s enzyme assay; assay type: biochemical; conditions: supplementary csv
T1 construct: Recombinant mouse C1s (22–694 aa) fused with both the N-terminal IgG signal peptide; IgG signal peptide (N); His tag (C); made in house; host or cells: Expi293 cells
T1 sequence (Q8CG14 438-688 limits assumed): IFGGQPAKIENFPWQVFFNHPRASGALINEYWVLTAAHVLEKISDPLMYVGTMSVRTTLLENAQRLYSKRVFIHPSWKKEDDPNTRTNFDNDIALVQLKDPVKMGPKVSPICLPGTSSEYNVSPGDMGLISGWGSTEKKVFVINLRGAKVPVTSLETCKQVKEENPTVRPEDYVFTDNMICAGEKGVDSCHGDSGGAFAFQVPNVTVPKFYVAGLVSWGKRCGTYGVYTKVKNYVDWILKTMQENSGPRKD
T1 sequence (Q8CG14 16-437 partner limits assumed): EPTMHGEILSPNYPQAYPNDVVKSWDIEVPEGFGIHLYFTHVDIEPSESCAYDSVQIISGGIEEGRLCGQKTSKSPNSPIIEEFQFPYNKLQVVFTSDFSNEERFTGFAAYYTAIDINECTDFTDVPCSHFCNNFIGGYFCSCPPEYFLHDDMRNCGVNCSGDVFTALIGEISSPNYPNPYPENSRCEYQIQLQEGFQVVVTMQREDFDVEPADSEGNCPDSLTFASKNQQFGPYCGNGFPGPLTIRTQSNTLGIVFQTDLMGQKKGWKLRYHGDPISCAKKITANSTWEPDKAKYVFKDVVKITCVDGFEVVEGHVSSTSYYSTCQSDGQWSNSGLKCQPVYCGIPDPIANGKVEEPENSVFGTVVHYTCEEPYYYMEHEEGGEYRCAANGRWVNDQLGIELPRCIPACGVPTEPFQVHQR
From the text: Recombinant mouse C1s (22–694 aa) fused with both the N-terminal IgG signal peptide and the C-terminal His tag was expressed in Expi293 cells and purified. Mouse C1s was activated by recombinant human C1r prior to use. Mouse C1s assay conditions were the same as for human C1s, except that the enzyme solution concentration was 30 nmol/L.

[2] = target: T2, human MASP2 (Homo sapiens, UniProt O00187); experiment: Human MASP2 enzyme assay; assay type: biochemical; conditions: supplementary csv
T2 construct: Recombinant human MASP2 (298–686 aa) fused with both the N-terminal IgG signal peptide; IgG signal peptide (N); His tag (C); made in house; host or cells: Expi293 cells
T2 sequence (O00187 298-686): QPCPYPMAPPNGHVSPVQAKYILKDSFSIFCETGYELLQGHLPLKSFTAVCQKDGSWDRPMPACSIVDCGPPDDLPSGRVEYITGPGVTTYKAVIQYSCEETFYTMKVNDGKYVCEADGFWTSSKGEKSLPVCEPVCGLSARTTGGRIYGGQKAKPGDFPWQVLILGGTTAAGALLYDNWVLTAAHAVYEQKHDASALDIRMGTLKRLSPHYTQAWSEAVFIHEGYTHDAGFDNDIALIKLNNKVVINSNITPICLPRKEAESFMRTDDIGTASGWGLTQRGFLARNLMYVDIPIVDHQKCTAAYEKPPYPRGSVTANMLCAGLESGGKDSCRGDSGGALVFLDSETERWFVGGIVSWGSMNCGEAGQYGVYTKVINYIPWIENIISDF
Experimental: Recombinant human MASP2 (298–686 aa) fused with both the N-terminal IgG signal peptide and the C-terminal His tag was expressed in Expi293 cells and purified. The assay was performed in a 384-well black plate in a total volume of 6 μL of the assay buffer 1. After 20 nL of compound solution was added to the plate, 3 μL of substrate solution containing a 20 μmol/L Z-Gly-Arg-SBzl peptide and 20 μmol/L BES-Thio (FUJIFILM Wako, Osaka, Japan) was added to the plate. Then, 0.6 nmol/L human MASP2 was added to the plate and incubated at room temperature for 60 min. The fluorescence at an excitation wavelength of 485 nm and an emission wavelength of 535 nm was detected using an EnVision multilabel plate reader.

[3] = target: T3, human plasmin (Homo sapiens, UniProt P00747); experiment: Human plasmin enzyme assay; assay type: biochemical; conditions: supplementary csv
T3 construct: purchased Zedira
T3 sequence (P00747 581-810 limits assumed): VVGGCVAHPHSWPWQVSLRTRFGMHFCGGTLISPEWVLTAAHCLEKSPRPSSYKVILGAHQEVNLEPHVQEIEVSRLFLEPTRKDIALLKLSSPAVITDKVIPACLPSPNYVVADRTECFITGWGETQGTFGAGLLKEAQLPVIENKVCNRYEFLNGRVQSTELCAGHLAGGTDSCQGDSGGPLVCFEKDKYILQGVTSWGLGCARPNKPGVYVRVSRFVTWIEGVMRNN
Experimental: Recombinant human plasmin (Zedira, Hesse, Germany) and the substrate were diluted in an assay buffer [50 mmol/L Tris–HCl (pH 7.5), 150 mmol/L NaCl, and 0.01% (w/v) Tween 20]. Compounds were dissolved in DMSO and then diluted in an assay buffer. After 5 μL of compound solution was added to a 384-well black plate, 5 μL of substrate solution containing 75 μmol/L Boc-Val-Leu-Lys-MCA (Peptide Institute, Osaka, Japan) was added to the plate. Then, 11.25 nmol/L human plasmin was added to the plate and incubated at room temperature for 60 min. The fluorescence at an excitation wavelength of 380 nm and an emission wavelength of 460 nm was detected using an EnVision multilabel plate reader.

[4] = Pharmacokinetics analysis in mice (oral; plasma and brain); assay type: in vivo; conditions: for AUC0-24h / Cmax / MRT: plasma; for concentration at 2 h / Kp at 2 h / concentration at 24 h: male, C57BL/6J, mouse, brain; for Kp at 2 h: read-out: Brain to plasma ratio 2 h
Experimental: Male C57BL/6J mice were purchased from The Jackson Laboratory Japan, Inc. (Kanagawa, Japan). […] The compound was dissolved in 10% DMSO/10% Cremophor EL/20% PEG400/60% 0.1 mol/L citric acid solution and administered orally at doses of 10, 30, or 100 mg/kg. Blood samples were collected into heparinized tubes at the designated time points (0.5, 1, 2, 4, 8, and 24 h postdosing), and brains were also collected at 2 and 24 h postdosing. Plasma was separated from the blood samples by centrifugation. The plasma and brain concentrations were quantified with high-performance liquid chromatography–tandem mass spectrometry. The lower limit of quantitation was 1 ng/mL for plasma and 5 ng/mL for brains.

## Cc1cc([C@H]2CN(c3cc(F)c4c(N)nncc4c3)CCN2c2cccc(F)c2)no1 [Compound (R)-8, 8-Fluoro-6-[(3R)-4-(3-fluorophenyl)-3-(5-methyl-1,2-oxazol-3-yl)piperazin-1-yl]phthalazin-1-amine]
[1]
  IC50: 0.061 µM
[2]
  IC50: > 30 µM
[3]
  IC50: > 30 µM
[4]; 10 mg/kg
  AUC0-24h: 6017.8 ± 390.4 ng·h/mL
  Cmax: 1032.5 ± 173.0 ng/mL
  MRT: 4.31 ± 0.23 h
  concentration at 2 h: 560 ± 106 ng/g
  Kp at 2 h: 0.7
  concentration at 24 h: 5.2 ± 0.2 ng/g
[4]; 30 mg/kg
  AUC0-24h: 21928.6 ± 1428.2 ng·h/mL
  Cmax: 2583.3 ± 267.1 ng/mL
  MRT: 5.02 ± 0.18 h
  concentration at 2 h: 3830 ± 935 ng/g
  Kp at 2 h: 1.7
  concentration at 24 h: 8.9 ± 3.8 ng/g
[4]; 100 mg/kg
  AUC0-24h: 139341.0 ± 36760.1 ng·h/mL
  Cmax: 8895.5 ± 1516.8 ng/mL
  MRT: 7.66 ± 0.99 h
  concentration at 2 h: 33600 ± 19300 ng/g
  Kp at 2 h: 6
  concentration at 24 h: 1860 ± 2400 ng/g
